Data reported in ChEMBL document CHEMBL4507292 (2021).

Key:
[1] = molecular target: Serine/threonine-protein kinase PAK 1 (Homo sapiens) (UniProt Q13153); conditions: Compound concentration 1000.0 nM
[2] = molecular target: RAC-gamma serine/threonine-protein kinase (Homo sapiens) (UniProt Q9Y243); conditions: Compound concentration 1000.0 nM
[3] = molecular target: Calcium/calmodulin-dependent protein kinase type II subunit alpha (Homo sapiens) (UniProt Q9UQM7); conditions: Compound concentration 1000.0 nM
[4] = molecular target: Serine/threonine-protein kinase 35 (Homo sapiens) (UniProt Q8TDR2); conditions: Compound concentration 1000.0 nM
[5] = molecular target: Myosin light chain kinase, smooth muscle (Homo sapiens) (UniProt Q15746); conditions: Compound concentration 1000.0 nM
[6] = molecular target: Serine/threonine-protein kinase 36 (Homo sapiens) (UniProt Q9NRP7); conditions: Compound concentration 1000.0 nM
[7] = molecular target: Ephrin type-A receptor 1 (Homo sapiens) (UniProt P21709); conditions: Compound concentration 1000.0 nM
[8] = molecular target: LIM domain kinase 2 (Homo sapiens) (UniProt P53671); conditions: Compound concentration 1000.0 nM
[9] = molecular target: 5-hydroxytryptamine receptor 7 (Homo sapiens) (UniProt P34969); conditions: Compound concentration 10.0 uM
[10] = molecular target: Mast/stem cell growth factor receptor Kit (Homo sapiens) (UniProt P10721); conditions: Compound concentration 1000.0 nM
[11] = molecular target: Tyrosine-protein kinase Mer (Homo sapiens) (UniProt Q12866); conditions: Compound concentration 1000.0 nM
[12] = molecular target: Serine/threonine-protein kinase MRCK gamma (Homo sapiens) (UniProt Q6DT37); conditions: Compound concentration 1000.0 nM
[13] = molecular target: Serine/threonine-protein kinase WNK3 (Homo sapiens) (UniProt Q9BYP7); conditions: Compound concentration 1000.0 nM
[14] = molecular target: Mitogen-activated protein kinase 3 (Homo sapiens) (UniProt P27361); conditions: Compound concentration 1000.0 nM
[15] = system: Phosphatidylinositol 4,5-bisphosphate 3-kinase catalytic subunit alpha isoform (Homo sapiens), P42336 [E542K]; conditions: Compound concentration 1000.0 nM
[16] = molecular target: Serine/threonine-protein kinase N2 (Homo sapiens) (UniProt Q16513); conditions: Compound concentration 1000.0 nM
[17] = molecular target: Serine/threonine-protein kinase Nek6 (Homo sapiens) (UniProt Q9HC98); conditions: Compound concentration 1000.0 nM
[18] = molecular target: cAMP-dependent protein kinase catalytic subunit PRKX (Homo sapiens) (UniProt P51817); conditions: Compound concentration 1000.0 nM
[19] = molecular target: Proto-oncogene tyrosine-protein kinase receptor Ret (Homo sapiens) (UniProt P07949); conditions: Compound concentration 1000.0 nM
[20] = molecular target: Beta-1 adrenergic receptor (Homo sapiens) (UniProt P08588); conditions: Compound concentration 10.0 uM
[21] = molecular target: Sodium-dependent serotonin transporter (Homo sapiens, UniProt P31645); conditions: Compound concentration 10.0 uM
[22] = molecular target: Serine/threonine-protein kinase 38-like (Homo sapiens) (UniProt Q9Y2H1); conditions: Compound concentration 1000.0 nM
[23] = molecular target: Epithelial discoidin domain-containing receptor 1 (Homo sapiens) (UniProt Q08345); conditions: Compound concentration 1000.0 nM
[24] = molecular target: Testis-specific serine/threonine-protein kinase 1 (Homo sapiens) (UniProt Q9BXA7); conditions: Compound concentration 1000.0 nM
[25] = molecular target: Aurora kinase A (Homo sapiens) (UniProt O14965); conditions: Compound concentration 1000.0 nM
[26] = molecular target: Maternal embryonic leucine zipper kinase (Homo sapiens) (UniProt Q14680); conditions: Compound concentration 1000.0 nM
[27] = molecular target: Serine/threonine-protein kinase Nek5 (Homo sapiens) (UniProt Q6P3R8); conditions: Compound concentration 1000.0 nM
[28] = molecular target: Serine/threonine-protein kinase WNK4 (Homo sapiens) (UniProt Q96J92); conditions: Compound concentration 1000.0 nM
[29] = molecular target: Hormonally up-regulated neu tumor-associated kinase (Homo sapiens) (UniProt P57058); conditions: Compound concentration 1000.0 nM
[30] = molecular target: Serine/threonine-protein kinase D1 (Homo sapiens) (UniProt Q15139); conditions: Compound concentration 1000.0 nM
[31] = molecular target: Leukocyte tyrosine kinase receptor (Homo sapiens) (UniProt P29376); conditions: Compound concentration 1000.0 nM
[32] = molecular target: Focal adhesion kinase 1 (Homo sapiens) (UniProt Q05397); conditions: Compound concentration 1000.0 nM
[33] = molecular target: Histamine H2 receptor (Homo sapiens) (UniProt P25021); conditions: Compound concentration 10.0 uM
D(1B) dopamine receptor = D(1B) dopamine receptor (Homo sapiens, UniProt P21918); conditions: Compound concentration 10.0 uM
[34] = molecular target: Histamine H4 receptor (Homo sapiens) (UniProt Q9H3N8); conditions: Compound concentration 10.0 uM
[35] = molecular target: Serine/threonine-protein kinase WNK2 (Homo sapiens) (UniProt Q9Y3S1); conditions: Compound concentration 1000.0 nM
[36] = system: Hepatocyte growth factor receptor (Homo sapiens), P08581 [Y1235D]; conditions: Compound concentration 1000.0 nM
[37] = system: Receptor-type tyrosine-protein kinase FLT3 (Homo sapiens), P36888 [UNDEFINED MUTATION]; conditions: Compound concentration 1000.0 nM
[38] = molecular target: Dual specificity mitogen-activated protein kinase kinase 1 (Homo sapiens) (UniProt Q02750); conditions: Compound concentration 1000.0 nM
[39] = system: Proto-oncogene tyrosine-protein kinase receptor Ret (Homo sapiens), P07949 [M918T]; conditions: Compound concentration 1000.0 nM
D(1A) dopamine receptor = D(1A) dopamine receptor (Homo sapiens, UniProt P21728); experiment: GPCRScan assay: inhibition of D1; parameters: radioligand conc. used [nm] 0.6 – 1.3, parental cells HEKT
[40] = molecular target: Tyrosine-protein kinase Tec (Homo sapiens) (UniProt P42680); conditions: Compound concentration 1000.0 nM
[41] = molecular target: Ribosomal protein S6 kinase alpha-4 (Homo sapiens) (UniProt O75676); conditions: Compound concentration 1000.0 nM
[42] = molecular target: Ribosomal protein S6 kinase alpha-1 (Homo sapiens) (UniProt Q15418); conditions: Compound concentration 1000.0 nM
[43] = molecular target: Dual specificity mitogen-activated protein kinase kinase 6 (Homo sapiens) (UniProt P52564); conditions: Compound concentration 1000.0 nM

Chain of Serine/threonine-protein kinase PAK 1 (Homo sapiens) (Q13153 whole entry): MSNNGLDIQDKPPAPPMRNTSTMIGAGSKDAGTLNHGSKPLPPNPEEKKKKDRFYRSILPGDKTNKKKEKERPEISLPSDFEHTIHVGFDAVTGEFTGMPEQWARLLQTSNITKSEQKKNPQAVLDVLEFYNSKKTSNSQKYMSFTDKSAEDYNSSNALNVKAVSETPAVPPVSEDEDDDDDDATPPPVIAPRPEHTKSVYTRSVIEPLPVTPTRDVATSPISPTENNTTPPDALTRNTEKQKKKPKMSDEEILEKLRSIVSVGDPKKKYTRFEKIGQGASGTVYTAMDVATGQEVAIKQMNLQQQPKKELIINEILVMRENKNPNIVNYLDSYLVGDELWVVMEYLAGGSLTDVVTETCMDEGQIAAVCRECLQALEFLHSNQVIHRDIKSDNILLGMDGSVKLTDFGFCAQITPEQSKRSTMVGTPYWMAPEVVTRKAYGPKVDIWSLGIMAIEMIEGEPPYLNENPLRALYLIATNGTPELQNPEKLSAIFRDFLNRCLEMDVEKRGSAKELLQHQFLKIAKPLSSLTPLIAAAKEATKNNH
Chain of Serine/threonine-protein kinase WNK2 (Homo sapiens) (Q9Y3S1 whole entry): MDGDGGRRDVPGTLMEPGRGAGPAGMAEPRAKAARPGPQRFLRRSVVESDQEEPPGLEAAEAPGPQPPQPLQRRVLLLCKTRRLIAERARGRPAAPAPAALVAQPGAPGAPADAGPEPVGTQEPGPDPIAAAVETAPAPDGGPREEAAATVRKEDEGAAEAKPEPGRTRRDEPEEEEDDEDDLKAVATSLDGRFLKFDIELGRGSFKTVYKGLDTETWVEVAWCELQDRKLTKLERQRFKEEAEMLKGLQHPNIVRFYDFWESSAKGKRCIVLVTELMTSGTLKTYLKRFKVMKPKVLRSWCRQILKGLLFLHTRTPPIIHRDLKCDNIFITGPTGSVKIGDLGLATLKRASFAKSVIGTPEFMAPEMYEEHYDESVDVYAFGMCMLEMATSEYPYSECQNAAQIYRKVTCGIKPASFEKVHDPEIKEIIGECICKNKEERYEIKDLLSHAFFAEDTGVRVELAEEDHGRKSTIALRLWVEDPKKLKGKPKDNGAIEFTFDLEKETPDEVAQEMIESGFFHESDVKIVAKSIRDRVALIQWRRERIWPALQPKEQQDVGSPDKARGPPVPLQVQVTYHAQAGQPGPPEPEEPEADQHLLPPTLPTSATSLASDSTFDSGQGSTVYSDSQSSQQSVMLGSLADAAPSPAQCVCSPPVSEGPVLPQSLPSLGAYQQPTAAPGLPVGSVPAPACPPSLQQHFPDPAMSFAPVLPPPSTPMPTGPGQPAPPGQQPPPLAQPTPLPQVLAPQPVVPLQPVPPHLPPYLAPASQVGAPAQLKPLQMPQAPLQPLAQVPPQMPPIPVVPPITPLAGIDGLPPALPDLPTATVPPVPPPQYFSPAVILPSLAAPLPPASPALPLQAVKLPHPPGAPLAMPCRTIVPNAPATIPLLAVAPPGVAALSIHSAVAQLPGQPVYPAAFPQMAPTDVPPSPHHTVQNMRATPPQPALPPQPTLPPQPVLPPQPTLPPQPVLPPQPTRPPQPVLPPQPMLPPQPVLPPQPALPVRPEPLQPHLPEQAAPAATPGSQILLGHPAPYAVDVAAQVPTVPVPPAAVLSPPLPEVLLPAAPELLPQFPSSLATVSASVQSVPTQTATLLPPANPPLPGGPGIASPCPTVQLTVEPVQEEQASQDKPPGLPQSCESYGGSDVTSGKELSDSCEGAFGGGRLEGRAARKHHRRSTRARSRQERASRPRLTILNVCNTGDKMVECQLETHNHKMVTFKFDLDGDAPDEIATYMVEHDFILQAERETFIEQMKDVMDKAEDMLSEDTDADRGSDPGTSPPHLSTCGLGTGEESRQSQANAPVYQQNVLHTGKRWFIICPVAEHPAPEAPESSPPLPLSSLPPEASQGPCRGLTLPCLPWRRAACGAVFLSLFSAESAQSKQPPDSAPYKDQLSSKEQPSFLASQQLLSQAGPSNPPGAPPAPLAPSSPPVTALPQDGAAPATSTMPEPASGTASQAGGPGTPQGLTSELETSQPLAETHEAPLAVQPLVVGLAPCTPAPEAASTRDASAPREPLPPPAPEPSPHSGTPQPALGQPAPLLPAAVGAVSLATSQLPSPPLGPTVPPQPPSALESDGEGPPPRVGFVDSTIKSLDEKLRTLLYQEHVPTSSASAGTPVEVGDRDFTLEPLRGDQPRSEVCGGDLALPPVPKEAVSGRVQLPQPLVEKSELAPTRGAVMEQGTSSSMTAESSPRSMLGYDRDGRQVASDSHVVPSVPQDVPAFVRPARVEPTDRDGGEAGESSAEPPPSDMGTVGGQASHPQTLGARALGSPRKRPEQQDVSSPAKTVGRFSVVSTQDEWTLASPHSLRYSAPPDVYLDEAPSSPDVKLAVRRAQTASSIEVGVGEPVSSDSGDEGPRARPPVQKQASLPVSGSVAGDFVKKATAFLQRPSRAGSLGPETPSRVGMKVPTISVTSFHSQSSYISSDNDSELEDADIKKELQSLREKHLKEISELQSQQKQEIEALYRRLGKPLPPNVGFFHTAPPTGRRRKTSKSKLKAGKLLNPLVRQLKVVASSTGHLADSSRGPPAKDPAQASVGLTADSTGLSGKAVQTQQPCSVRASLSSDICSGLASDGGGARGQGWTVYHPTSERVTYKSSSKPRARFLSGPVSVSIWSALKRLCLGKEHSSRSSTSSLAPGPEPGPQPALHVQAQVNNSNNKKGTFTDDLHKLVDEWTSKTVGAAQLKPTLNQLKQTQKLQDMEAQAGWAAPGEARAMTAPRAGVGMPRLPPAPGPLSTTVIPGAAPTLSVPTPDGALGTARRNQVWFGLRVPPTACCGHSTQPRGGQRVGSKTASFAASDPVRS
Chain of Calcium/calmodulin-dependent protein kinase type II subunit alpha (Homo sapiens) (Q9UQM7 whole entry): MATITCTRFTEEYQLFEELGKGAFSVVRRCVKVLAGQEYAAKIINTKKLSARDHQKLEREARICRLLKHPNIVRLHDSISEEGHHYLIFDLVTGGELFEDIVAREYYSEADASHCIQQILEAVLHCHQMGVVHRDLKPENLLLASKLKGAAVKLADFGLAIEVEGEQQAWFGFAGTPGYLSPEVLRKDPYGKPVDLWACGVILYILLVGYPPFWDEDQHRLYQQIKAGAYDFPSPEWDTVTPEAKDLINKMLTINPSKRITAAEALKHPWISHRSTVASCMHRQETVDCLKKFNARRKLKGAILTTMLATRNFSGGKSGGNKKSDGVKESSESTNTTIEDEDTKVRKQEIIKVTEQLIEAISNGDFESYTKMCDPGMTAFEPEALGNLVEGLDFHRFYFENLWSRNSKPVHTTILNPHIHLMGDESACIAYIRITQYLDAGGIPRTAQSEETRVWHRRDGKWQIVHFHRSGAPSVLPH
Chain of Dual specificity mitogen-activated protein kinase kinase 1 (Homo sapiens) (Q02750 whole entry): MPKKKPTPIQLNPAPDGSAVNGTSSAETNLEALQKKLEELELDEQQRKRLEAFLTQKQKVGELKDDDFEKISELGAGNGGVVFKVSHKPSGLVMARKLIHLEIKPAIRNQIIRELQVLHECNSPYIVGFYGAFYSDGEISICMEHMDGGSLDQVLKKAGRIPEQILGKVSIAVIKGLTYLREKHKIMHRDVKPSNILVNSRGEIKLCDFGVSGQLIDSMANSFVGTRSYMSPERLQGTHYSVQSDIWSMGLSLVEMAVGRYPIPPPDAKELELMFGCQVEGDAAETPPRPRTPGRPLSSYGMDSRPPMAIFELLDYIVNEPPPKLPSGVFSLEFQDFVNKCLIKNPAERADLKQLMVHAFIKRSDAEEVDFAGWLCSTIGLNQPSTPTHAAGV
Chain of Maternal embryonic leucine zipper kinase (Homo sapiens) (Q14680 whole entry, looked up): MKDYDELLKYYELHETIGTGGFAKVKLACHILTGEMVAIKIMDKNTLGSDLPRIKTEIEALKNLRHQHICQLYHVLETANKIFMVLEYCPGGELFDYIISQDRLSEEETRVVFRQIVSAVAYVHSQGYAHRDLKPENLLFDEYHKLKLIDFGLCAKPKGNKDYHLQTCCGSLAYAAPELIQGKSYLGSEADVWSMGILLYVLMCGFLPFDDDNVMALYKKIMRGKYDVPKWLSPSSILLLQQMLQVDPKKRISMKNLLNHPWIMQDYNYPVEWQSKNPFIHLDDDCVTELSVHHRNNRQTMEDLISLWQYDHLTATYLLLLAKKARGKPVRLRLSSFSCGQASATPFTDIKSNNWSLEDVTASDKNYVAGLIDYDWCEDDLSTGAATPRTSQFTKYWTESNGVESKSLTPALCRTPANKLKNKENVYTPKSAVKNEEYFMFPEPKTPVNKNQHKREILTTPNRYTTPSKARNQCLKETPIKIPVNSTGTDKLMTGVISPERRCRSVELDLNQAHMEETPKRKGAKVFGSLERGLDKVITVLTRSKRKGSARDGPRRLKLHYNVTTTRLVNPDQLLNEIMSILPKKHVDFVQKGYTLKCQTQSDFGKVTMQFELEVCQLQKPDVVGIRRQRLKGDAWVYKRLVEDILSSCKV
Chain of cAMP-dependent protein kinase catalytic subunit PRKX (Homo sapiens) (P51817 whole entry): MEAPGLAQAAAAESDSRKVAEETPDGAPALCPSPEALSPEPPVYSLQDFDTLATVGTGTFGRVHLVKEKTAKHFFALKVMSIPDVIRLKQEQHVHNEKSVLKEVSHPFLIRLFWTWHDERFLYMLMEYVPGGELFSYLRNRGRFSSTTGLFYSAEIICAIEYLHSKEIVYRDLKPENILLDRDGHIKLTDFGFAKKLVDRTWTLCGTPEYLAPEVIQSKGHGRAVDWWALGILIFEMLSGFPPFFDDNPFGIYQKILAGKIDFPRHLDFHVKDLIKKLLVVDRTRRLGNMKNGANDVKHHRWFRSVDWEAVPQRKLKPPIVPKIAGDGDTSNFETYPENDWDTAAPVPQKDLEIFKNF
Chain of Serine/threonine-protein kinase Nek6 (Homo sapiens) (Q9HC98 whole entry): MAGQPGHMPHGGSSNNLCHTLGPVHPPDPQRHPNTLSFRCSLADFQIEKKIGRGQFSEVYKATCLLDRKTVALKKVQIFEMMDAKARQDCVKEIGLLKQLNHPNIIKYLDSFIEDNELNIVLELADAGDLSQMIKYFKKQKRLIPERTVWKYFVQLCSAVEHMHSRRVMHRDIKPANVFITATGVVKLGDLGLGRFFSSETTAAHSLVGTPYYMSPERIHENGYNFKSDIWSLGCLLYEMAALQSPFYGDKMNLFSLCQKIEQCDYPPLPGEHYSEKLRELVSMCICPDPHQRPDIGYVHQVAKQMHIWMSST

Cc1c(C(=O)O)cc(-c2ccc(C3CCNCC3)cc2)c2ccc(-c3ccc(C(F)(F)F)cc3)cc12 [PPTN-NC]
2.15 µM: Ki (D(1A) dopamine receptor)
active: inhibition (D(1B) dopamine receptor) 58.1%
inactive: residual activity [1] 100% | residual activity [2] 100% | residual activity [3] 100% | residual activity [4] 100% | residual activity [5] 82% | residual activity [6] 86% | residual activity [7] 83% | residual activity [8] 100% | inhibition [9] -3.66% | residual activity [10] 84% | residual activity [11] 91% | residual activity [12] 100% | residual activity [13] 100% | residual activity [14] 100% | residual activity [15] 99% | residual activity [16] 100% | residual activity [17] 100% | residual activity [18] 100% | residual activity [19] 99% | inhibition [20] 29.2% | inhibition [21] -7.91% | residual activity [22] 100% | residual activity [23] 100% | residual activity [24] 100% | residual activity [25] 100% | residual activity [26] 100% | residual activity [27] 100% | residual activity [28] 100% | residual activity [29] 100% | residual activity [30] 100% | residual activity [31] 100% | residual activity [32] 100% | inhibition [33] 9% | inhibition [34] -4.71% | residual activity [35] 100% | residual activity [36] 100% | residual activity [37] 81% | residual activity [38] 100% | residual activity [39] 100% | residual activity [40] 100% | residual activity [41] 88% | residual activity [42] 100% | residual activity [43] 100%

O=C(O)c1cc(-c2ccc(C3CCNCC3)cc2)c2ccc(-c3ccc(C(F)(F)F)cc3)cc2c1 [PPTN]
inactive: residual activity [1] 100% | residual activity [2] 100% | residual activity [3] 100% | residual activity [4] 100% | residual activity [5] 85% | residual activity [6] 100% | residual activity [7] 100% | residual activity [8] 100% | inhibition [9] 17.8% | residual activity [10] 99% | residual activity [11] 85% | residual activity [12] 100% | residual activity [13] 100% | residual activity [14] 100% | residual activity [15] 100% | residual activity [16] 100% | residual activity [17] 100% | residual activity [18] 100% | residual activity [19] 90% | inhibition [20] 24.7% | inhibition [21] -2.04% | residual activity [22] 100% | residual activity [23] 100% | residual activity [24] 100% | residual activity [25] 100% | residual activity [26] 98% | residual activity [27] 100% | residual activity [28] 100% | residual activity [29] 100% | residual activity [30] 100% | residual activity [31] 100% | residual activity [32] 100% | inhibition [33] 28% | inhibition [34] -6.7% | residual activity [35] 100% | residual activity [36] 100% | residual activity [37] 99% | residual activity [38] 100% | residual activity [39] 92% | residual activity [40] 100% | residual activity [41] 100% | residual activity [42] 100% | residual activity [43] 100%
10 µM: Ki (D(1A) dopamine receptor)
active: inhibition (D(1B) dopamine receptor) 73.7%
